Consider 30 compounds from patent US20100272680A1, “Piperidinyl Cyclic Amido Antiviral Agents” (priority 2009, published 2010).

The term EC50 denotes the midpoint of the concentration-response curve. The low end stands for a more potent agent, the high end for a less potent agent.

One assay has as its system HCV Genotype 1A Replicon. Description: Replicon assay, genotype 1a subgenomic replicon, luciferase readout. In kind it is cell-based. The settings on record: Hepatitis C virus, 48 h, Table 3; luciferase activity after 48 hours. The method, then: (§1) Compounds were assayed for activity against HCV using the genotype 1a and 1b subgenomic replicon model systems. Stable cell lines bearing the genotype 1a and 1b replicons were used for screening of compounds. Both replicons are bicistonic and contain the firefly luciferase gene. The ET cell line is stably transfected with RNA transcripts harboring a I389luc-ubi-neo/NS3-3′/ET replicon with firefly luciferase-ubiquitin-neomycin phosphotransferase fusion protein and EMCV-IRES driven NS3-5B polyprotein containing the cell culture adaptive mutations (E1202G; T12801; K1846T) (Krieger at al, 2001 and unpublished). The genotype 1a replicon is a stable cell line licensed from Apath LLC, modified to contain the firefly luciferase gene. The cells were grown in DMEM, supplemented with 10% fetal calf serum, 2 mM Glutamine, Penicillin (100 IU/mL)/Streptomycin (100 μg/mL), 1× nonessential amino acids, and 250-500 μg/mL G418 (“Geneticin”). They were all available through Life Technologies (Bethesda, Md.). The cells were plated at 0.5×10^4 cells/well in 384 well plates containing compounds. The final concentration of compounds ranged between 0.03 μM to 50 μm and the final DMSO concentration of 0.5-1%.
(§2) Luciferase activity was measured 48 hours later by adding a Steady glo (Promega, Madison, Wis.). Percent inhibition of replication data was plotted relative to no compound control. Under the same condition, cytotoxicity of the compounds was determined using cell titer glo (Promega, Madison, Wis). IC50s were determined from a 10 point dose response curve using 3-4-fold serial dilution for each compound, which spans a concentration range >1000 fold. BioAssay determines the level of inhibition for each compound by normalizing cross-talk corrected plate values against the negative […] controls to determine Percent Inhibition:
(§3) These normalized values are exported to EC50 where they are plotted against the molar compound concentrations using the standard four parameter logistic equation: […]
(§4) Some EC50 measurements were repeated a second time and for both 1A and 1B genotypes after those reported in Table 2 for compounds 101-108 and the repeated data was reported in Table 3.
Background: A replicon is a self-replicating genome or part of one, used to study replication in cells.

The test system of another assay is HCV Genotype 1B Replicon. In words: Replicon assay, genotype 1b subgenomic replicon (ET cell line), luciferase readout. In kind it is cell-based. To be noted: Hepatitis C virus, 48 h, Table 3; luciferase activity after 48 hours. The method, then:
as §1, §2, §3, §4

Turning to `O=C(c1nc2c(C(F)(F)F)cc(C3CC3)cn2c1Cl)N1CC[C@@H](N2CCOC2=O)[C@H](O)C1` (single isomer, unassigned; enantiomer 1) [Compound 220, 3-((trans)-1-{[3-chloro-6-cyclopropyl-8-(trifluoromethyl)imidazo[1,2-a]pyridin-2-yl]carbonyl}-3-hydroxy-4-piperidinyl)-1,3-oxazolidin-2-one (Enantiomer 1)], the values for the EC50 in the assay with HCV Genotype 1A Replicon and in the assay on HCV Genotype 1B Replicon were 20 nM and 30 nM, respectively.
On the same counts, the results for `O=C1CN(C(=O)c2nc3c(C(F)(F)F)cc(C4CC4)cn3c2Cl)CC[C@@H]1N1CCOC1=O` (stereo in doubt) [Compound 232, 1-{[3-chloro-6-cyclopropyl-8-(trifluoromethyl)imidazo[1,2-a]pyridin-2-yl]carbonyl}-4-(2-oxo-1,3-oxazolidin-3-yl)-3-piperidinone] are 60 nM and 80 nM.
On the same counts, the results for `O=C(c1nc2c(C(F)(F)F)cccn2c1Cl)N1CCC(N2CCCC2=O)CC1` [Compound 109, 1-(1-{[3-chloro-8-(trifluoromethyl)imidazo[1,2-a]pyridin-2-yl]carbonyl}-4-piperidinyl)-2-pyrrolidinone] are 38000 nM and 28200 nM.
`O=C(c1nc2c(C(F)(F)F)cc(Cl)cn2c1Cl)N1CCC(N2CCCC2=O)CC1` [Compound 110, 1-(1-{[3,6-dichloro-8-(trifluoromethyl)imidazo[1,2-a]pyridin-2-yl]carbonyl}-4-piperidinyl)-2-pyrrolidinone]: the figures for the EC50 in the assay with HCV Genotype 1A Replicon and in the assay on HCV Genotype 1B Replicon were 1740 nM and 800 nM, respectively.
On to `O=C(c1nc2c(C(F)(F)F)cccn2c1Cl)N1CCC(N2CCOC2=O)CC1` [Compound 111, 3-(1-{[3-chloro-8-(trifluoromethyl)imidazo[1,2-a]pyridin-2-yl]carbonyl}-4-piperidinyl)-1,3-oxazolidin-2-one], for which the results for the EC50 with HCV Genotype 1A Replicon and in the assay with HCV Genotype 1B Replicon were at least 5010 nM and 11800 nM, respectively.
`O=C(c1nc2c(C(F)(F)F)cc(Cl)cn2c1Cl)N1CCC(N2CCOC2=O)CC1` [Compound 112, 3-(1-{[3,6-dichloro-8-(trifluoromethyl)imidazo[1,2-a]pyridin-2-yl]carbonyl)-4-piperidinyl)-1,3-oxazolidin-2-one]: the EC50 with HCV Genotype 1A Replicon came out at 130 nM; in the assay with HCV Genotype 1B Replicon, 170 nM.
For `O=C(c1nc2c(C(F)(F)F)cc(-c3ccncc3)cn2c1Cl)N1CCC(N2CCOC2=O)CC1` [Compound 113], in that order: 740 nM and 9660 nM.
Consider `O=C(c1nc2c(C(F)(F)F)cc(-c3cccc(F)c3)cn2c1Cl)N1CCC(N2CCOC2=O)CC1` [Compound 114], for which the EC50 in the assay on HCV Genotype 1A Replicon came out at 30 nM; in the assay with HCV Genotype 1B Replicon it was 310 nM.
For `O=C(c1nc2c(C(F)(F)F)cc(-c3ccc(F)cc3)cn2c1Cl)N1CCC(N2CCOC2=O)CC1` [Compound 115, 3-(1-{[3-chloro-6-(4-fluorophenyl)-8-(trifluoromethyl)imidazo[1,2-a]pyridin-2-yl]carbonyl}-4-piperidinyl)-1,3-oxazolidin-2-one], the EC50 is 60 nM in the assay on HCV Genotype 1A Replicon and 3690 nM in the assay on HCV Genotype 1B Replicon.
On the same counts, the results for `COc1ccccc1-c1cc(C(F)(F)F)c2nc(C(=O)N3CCC(N4CCOC4=O)CC3)c(Cl)n2c1` [Compound 116] are 360 nM and 7410 nM.
For `COc1cccc(-c2cc(C(F)(F)F)c3nc(C(=O)N4CCC(N5CCOC5=O)CC4)c(Cl)n3c2)c1` [Compound 117], in that order: 470 nM and 2540 nM.
For `COc1ccc(-c2cc(C(F)(F)F)c3nc(C(=O)N4CCC(N5CCOC5=O)CC4)c(Cl)n3c2)cc1` [Compound 118], in that order: 150 nM and 17600 nM.
For the compound `O=C(c1nc2c(C(F)(F)F)cc(-c3ccsc3)cn2c1Cl)N1CCC(N2CCOC2=O)CC1` [Compound 119], the EC50 in the assay with HCV Genotype 1A Replicon was determined as 10 nM; in the assay on HCV Genotype 1B Replicon it was 50 nM.
On the same counts, the results for `O=C(c1nc2c(C(F)(F)F)cc(-c3cccc4cccnc34)cn2c1Cl)N1CCC(N2CCOC2=O)CC1` [Compound 120] are 290 nM and 36000 nM.
For `O=C(c1nc2c(C(F)(F)F)cc(-c3ccccc3O)cn2c1Cl)N1CCC(N2CCOC2=O)CC1` [Compound 121], in that order: 440 nM and 2850 nM.
Take `O=C(c1nc2c(C(F)(F)F)cc(-c3cccc(O)c3)cn2c1Cl)N1CCC(N2CCOC2=O)CC1` [Compound 122]: the results for the EC50 in the assay on HCV Genotype 1A Replicon and with HCV Genotype 1B Replicon were 2340 nM and 15800 nM, respectively.
For `O=C(c1nc2c(C(F)(F)F)cc(-c3ccc(O)cc3)cn2c1Cl)N1CCC(N2CCOC2=O)CC1` [Compound 123], in that order: 30 nM and 380 nM.
On the same counts, the results for `Cn1cc(-c2cc(C(F)(F)F)c3nc(C(=O)N4CCC(N5CCOC5=O)CC4)c(Cl)n3c2)cn1` [Compound 124] are 30 nM and 3470 nM.
With `CCn1cc(-c2cc(C(F)(F)F)c3nc(C(=O)N4CCC(N5CCOC5=O)CC4)c(Cl)n3c2)cn1` [Compound 125], the results for the EC50 in the assay with HCV Genotype 1A Replicon and in the assay with HCV Genotype 1B Replicon were 90 nM and 13300 nM, respectively.
In the case of `CC(C)Cn1cc(-c2cc(C(F)(F)F)c3nc(C(=O)N4CCC(N5CCOC5=O)CC4)c(Cl)n3c2)cn1` [Compound 126, 3-(1-{[3-chloro-6-[1-(2-methylpropyl)-1H-pyrazol-4-yl]-8-(trifluoromethyl)imidazo[1,2-a]pyridin-2-yl]carbonyl}-4-piperidinyl)-1,3-oxazolidin-2-one], the EC50 with HCV Genotype 1A Replicon was 13600 nM; in the assay with HCV Genotype 1B Replicon, at least 50100 nM.
On the same counts, the results for `O=C(c1nc2c(C(F)(F)F)cc(C3CCCC3)cn2c1Cl)N1CCC(N2CCOC2=O)CC1` [Compound 127, 3-(1-{[3-chloro-6-cyclopentyl-8-(trifluoromethyl)imidazo[1,2-a]pyridin-2-yl]carbonyl}-4-piperidinyl)-1,3-oxazolidin-2-one] are 10 nM and 170 nM.
Consider `O=C(c1nc2c(C(F)(F)F)cc(C3CCC3)cn2c1Cl)N1CCC(N2CCOC2=O)CC1` [Compound 128, 3-(1-{[3-chloro-6-cyclobutyl-8-(trifluoromethyl)imidazo[1,2-a]pyridin-2-yl]carbonyl}-4-piperidinyl)-1,3-oxazolidin-2-one], for which the EC50 with HCV Genotype 1A Replicon was determined as 10 nM; in the assay with HCV Genotype 1B Replicon, 30 nM.
On the same counts, the results for `CCCc1cc(C(F)(F)F)c2nc(C(=O)N3CCC(N4CCOC4=O)CC3)c(Cl)n2c1` [Compound 129, 3-(1-{[3-chloro-6-propyl-8-(trifluoromethyl)imidazo[1,2-a]pyridin-2-yl]carbonyl}-4-piperidinyl)-1,3-oxazolidin-2-one] are 20 nM and 120 nM.
For `CC(C)Cc1cc(C(F)(F)F)c2nc(C(=O)N3CCC(N4CCOC4=O)CC3)c(Cl)n2c1` [Compound 130, 3-(1-{[3-chloro-6-(2-methylpropyl)-8-(trifluoromethyl)imidazo[1,2-a]pyridin-2-yl]carbonyl}-4-piperidinyl)-1,3-oxazolidin-2-one], in that order: 20 nM and 50 nM.
On to `CCCCc1cc(C(F)(F)F)c2nc(C(=O)N3CCC(N4CCOC4=O)CC3)c(Cl)n2c1` [Compound 131], for which the figures for the EC50 with HCV Genotype 1A Replicon and with HCV Genotype 1B Replicon were 10 nM and 700 nM, respectively.
For `COc1cc(C(F)(F)F)c2nc(C(=O)N3CCC(N4CCOC4=O)CC3)c(Cl)n2c1` [Compound 132, 3-(1-{[3-chloro-6-(methyloxy)-8-(trifluoromethyl)imidazo[1,2-a]pyridin-2-yl]carbonyl}-4-piperidinyl)-1,3-oxazolidin-2-one], in that order: 130 nM and 210 nM.
On the same counts, the results for `Cc1ccc(-c2cc(C(F)(F)F)c3nc(C(=O)N4CCC(N5CCOC5=O)CC4)c(Cl)n3c2)o1` [Compound 133] are 110 nM and 3720 nM.
Turning to `O=C(c1nc2c(C(F)(F)F)cc(C3CCCO3)cn2c1Cl)N1CCC(N2CCOC2=O)CC1` (stereo not drawn) [Compound 134, 3-(1-{[3-chloro-6-(tetrahydro-2-furanyl)-8-(trifluoromethyl)imidazo[1,2-a]pyridin-2-yl]carbonyl}-4-piperidinyl)-1,3-oxazolidin-2-one], the figures for the EC50 in the assay on HCV Genotype 1A Replicon and in the assay with HCV Genotype 1B Replicon were 320 nM and 2190 nM, respectively.
On the same counts, the results for `CCOc1cc(C(F)(F)F)c2nc(C(=O)N3CCC(N4CCOC4=O)CC3)c(Cl)n2c1` [Compound 135, 3-(1-{[3-chloro-6-(ethyloxy)-8-(trifluoromethyl)imidazo[1,2-a]pyridin-2-yl]carbonyl}-4-piperidinyl)-1,3-oxazolidin-2-one] are 70 nM and 220 nM.
On the same counts, the results for `O=C(c1nc2c(C(F)(F)F)cc(-c3cccnc3)cn2c1Cl)N1CCC(N2CCOC2=O)CC1` [Compound 136, 3-(1-{[3-chloro-6-(3-pyridinyl)-8-(trifluoromethyl)imidazo[1,2-a]pyridin-2-yl]carbonyl}-4-piperidinyl)-1,3-oxazolidin-2-one] are 320 nM and 1840 nM.
